# Results reported in PubChem BioAssay AID1963832 (Molecular Pharmacology Branch, DTP, NCI, 2024).
# Test system: 885724-159-R-J1-PDC complex spheroid viability
# Experiment: Anticancer human tumor 885724-159-R-J1-PDC patient-derived pancreatic adenocarcinoma cell line growth inhibition [POLQ]
# Conditions: for IC50: curve of first compound; for viability, T/C: stronger effect = lower value
# Method in brief: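 Patient-derived tumour cells were co-cultured with HUVEC and mesenchymal stem cells as multicellular spheroids at 37 °C. They were treated with POLQ inhibitors (novobiocin, ART-558, RP6685) alone or combined with other agents. Top concentrations were at or near clinical Cmax (otherwise 10 microM; SN-38 at 1 microM), decreasing in half-log steps.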
# [1] = second compound 0.0316 µM, first compound 0.0316 µM
# [2] = second compound 0.0316 µM, first compound 0.1 µM
# [3] = second compound 0.0316 µM, first compound 0.316 µM
# [4] = second compound 0.0316 µM, first compound 1 µM
# [5] = second compound 0.1 µM, first compound 0.0316 µM
# [6] = second compound 0.1 µM, first compound 0.1 µM
# [7] = second compound 0.1 µM, first compound 0.316 µM
# [8] = second compound 0.1 µM, first compound 1 µM
# [9] = second compound 0.316 µM, first compound 0.0316 µM
# [10] = second compound 0.316 µM, first compound 0.1 µM
# [11] = second compound 0.316 µM, first compound 0.316 µM
# [12] = second compound 0.316 µM, first compound 1 µM
# [13] = second compound 1 µM, first compound 0.0316 µM
# [14] = second compound 1 µM, first compound 0.1 µM
# [15] = second compound 1 µM, first compound 0.316 µM
# [16] = second compound 1 µM, first compound 1 µM
# [17] = second compound 3.16 µM, first compound 0.0316 µM
# [18] = second compound 3.16 µM, first compound 0.1 µM
# [19] = second compound 3.16 µM, first compound 0.316 µM
# [20] = second compound 3.16 µM, first compound 1 µM
# [21] = second compound 10 µM, first compound 0.0316 µM
# [22] = second compound 10 µM, first compound 0.1 µM
# [23] = second compound 10 µM, first compound 0.316 µM
# [24] = second compound 10 µM, first compound 1 µM
# [25] = second compound 0.0316 µM, first compound 0.00316 µM
# [26] = second compound 0.0316 µM, first compound 0.01 µM
# [27] = second compound 0.1 µM, first compound 0.00316 µM
# [28] = second compound 0.1 µM, first compound 0.01 µM
# [29] = second compound 0.316 µM, first compound 0.00316 µM
# [30] = second compound 0.316 µM, first compound 0.01 µM
# [31] = second compound 1 µM, first compound 0.00316 µM
# [32] = second compound 1 µM, first compound 0.01 µM
# [33] = second compound 3.16 µM, first compound 0.00316 µM
# [34] = second compound 3.16 µM, first compound 0.01 µM
# [35] = second compound 10 µM, first compound 0.00316 µM
# [36] = second compound 10 µM, first compound 0.01 µM
# 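Also: spheroids exposed to compounds for 7 days.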
smiles,measurement,setting,value
CNCc1ccc(-c2[nH]c3cc(F)cc4c3c2CCNC4=O)cc1 + Nc1ccc(C#CCN(C(=O)Cc2ncc(C(F)(F)F)cc2C(F)(F)F)c2ccc(F)cc2)nn1,IC50,second compound 0.0316 µM,> 10000 nM
same,IC50,second compound 0.1 µM,> 10000 nM
same,IC50,second compound 0.316 µM,> 10000 nM
same,IC50,second compound 1 µM,> 10000 nM
same,IC50,second compound 3.16 µM,> 10000 nM
same,IC50,second compound 10 µM,> 10000 nM
same,"viability, T/C",[1],89%
same,"viability, T/C",[2],93%
same,"viability, T/C",[3],87.5%
same,"viability, T/C",[4],91%
same,"viability, T/C","second compound 0.0316 µM, first compound 3.16 µM",92.3%
same,"viability, T/C","second compound 0.0316 µM, first compound 10 µM",91.1%
same,"viability, T/C",[5],101%
same,"viability, T/C",[6],88.3%
same,"viability, T/C",[7],92.5%
same,"viability, T/C",[8],94.2%
same,"viability, T/C","second compound 0.1 µM, first compound 3.16 µM",89.9%
same,"viability, T/C","second compound 0.1 µM, first compound 10 µM",85.6%
same,"viability, T/C",[9],95.5%
same,"viability, T/C",[10],81.1%
same,"viability, T/C",[11],85.9%
same,"viability, T/C",[12],89.8%
same,"viability, T/C","second compound 0.316 µM, first compound 3.16 µM",96.5%
same,"viability, T/C","second compound 0.316 µM, first compound 10 µM",92.7%
same,"viability, T/C",[13],88.7%
same,"viability, T/C",[14],101%
same,"viability, T/C",[15],89.7%
same,"viability, T/C",[16],85.7%
same,"viability, T/C","second compound 1 µM, first compound 3.16 µM",88.7%
same,"viability, T/C","second compound 1 µM, first compound 10 µM",83.4%
same,"viability, T/C",[17],100%
same,"viability, T/C",[18],96.8%
same,"viability, T/C",[19],96.6%
same,"viability, T/C",[20],88.6%
same,"viability, T/C","second compound 3.16 µM, first compound 3.16 µM",98.3%
same,"viability, T/C","second compound 3.16 µM, first compound 10 µM",81.9%
same,"viability, T/C",[21],92%
same,"viability, T/C",[22],92.2%
same,"viability, T/C",[23],98.8%
same,"viability, T/C",[24],91.5%
same,"viability, T/C","second compound 10 µM, first compound 3.16 µM",92.2%
same,"viability, T/C","second compound 10 µM, first compound 10 µM",91.7%
COc1cccc(OCCCN)c1-c1cc(Nc2cnc(C#N)cn2)n[nH]1 + Nc1ccc(C#CCN(C(=O)Cc2ncc(C(F)(F)F)cc2C(F)(F)F)c2ccc(F)cc2)nn1,IC50,second compound 0.0316 µM,15.3 nM
same,IC50,second compound 0.1 µM,13.8 nM
same,IC50,second compound 0.316 µM,14.2 nM
same,IC50,second compound 1 µM,15.5 nM
same,IC50,second compound 3.16 µM,18.2 nM
same,IC50,second compound 10 µM,> 1000 nM
same,"viability, T/C",[25],79%
same,"viability, T/C",[26],52%
same,"viability, T/C",[1],46.1%
same,"viability, T/C",[2],46%
same,"viability, T/C",[3],45.7%
same,"viability, T/C",[4],47.7%
same,"viability, T/C",[27],74%
same,"viability, T/C",[28],53%
same,"viability, T/C",[5],43.2%
same,"viability, T/C",[6],43.3%
same,"viability, T/C",[7],43.3%
same,"viability, T/C",[8],48.1%
same,"viability, T/C",[29],77.3%
same,"viability, T/C",[30],51.5%
same,"viability, T/C",[9],47.3%
same,"viability, T/C",[10],42.9%
same,"viability, T/C",[11],43%
same,"viability, T/C",[12],48.6%
same,"viability, T/C",[31],73.7%
same,"viability, T/C",[32],51.1%
same,"viability, T/C",[13],50.1%
same,"viability, T/C",[14],41.3%
same,"viability, T/C",[15],41%
same,"viability, T/C",[16],46.7%
same,"viability, T/C",[33],68.4%
same,"viability, T/C",[34],52.3%
same,"viability, T/C",[17],46.6%
same,"viability, T/C",[18],44%
same,"viability, T/C",[19],53.6%
same,"viability, T/C",[20],48.1%
same,"viability, T/C",[35],72.3%
same,"viability, T/C",[36],57.5%
same,"viability, T/C",[21],46.1%
same,"viability, T/C",[22],49.7%
same,"viability, T/C",[23],53.2%
same,"viability, T/C",[24],51.2%
Cn1ncnc1[C@H]1c2n[nH]c(=O)c3cc(F)cc(c23)N[C@@H]1c1ccc(F)cc1 + Nc1ccc(C#CCN(C(=O)Cc2ncc(C(F)(F)F)cc2C(F)(F)F)c2ccc(F)cc2)nn1,IC50,second compound 0.0316 µM,> 100 nM
same,IC50,second compound 0.1 µM,> 100 nM
same,IC50,second compound 0.316 µM,> 100 nM
same,IC50,second compound 1 µM,> 100 nM
same,IC50,second compound 3.16 µM,> 100 nM
same,IC50,second compound 10 µM,> 100 nM
same,"viability, T/C","second compound 0.0316 µM, first compound 0.000316 µM",95.1%
same,"viability, T/C","second compound 0.0316 µM, first compound 0.001 µM",86.4%
same,"viability, T/C",[25],90.3%
same,"viability, T/C",[26],90.7%
same,"viability, T/C",[1],88.1%
same,"viability, T/C",[2],86.8%
same,"viability, T/C","second compound 0.1 µM, first compound 0.000316 µM",104%
same,"viability, T/C","second compound 0.1 µM, first compound 0.001 µM",86.5%
same,"viability, T/C",[27],90.1%
same,"viability, T/C",[28],88.1%
same,"viability, T/C",[5],93.1%
same,"viability, T/C",[6],80.4%
same,"viability, T/C","second compound 0.316 µM, first compound 0.000316 µM",99.9%
same,"viability, T/C","second compound 0.316 µM, first compound 0.001 µM",94.1%
same,"viability, T/C",[29],89.8%
same,"viability, T/C",[30],84.8%
same,"viability, T/C",[9],87.4%
same,"viability, T/C",[10],75.7%
same,"viability, T/C","second compound 1 µM, first compound 0.000316 µM",99.2%
same,"viability, T/C","second compound 1 µM, first compound 0.001 µM",88%
same,"viability, T/C",[31],89.5%
same,"viability, T/C",[32],95%
same,"viability, T/C",[13],92.2%
same,"viability, T/C",[14],81.7%
same,"viability, T/C","second compound 3.16 µM, first compound 0.000316 µM",97.8%
same,"viability, T/C","second compound 3.16 µM, first compound 0.001 µM",88%
same,"viability, T/C",[33],90%
same,"viability, T/C",[34],87%
same,"viability, T/C",[17],83.9%
same,"viability, T/C",[18],83.7%
same,"viability, T/C","second compound 10 µM, first compound 0.000316 µM",105%
same,"viability, T/C","second compound 10 µM, first compound 0.001 µM",92.1%
same,"viability, T/C",[35],96.1%
same,"viability, T/C",[36],92.2%
same,"viability, T/C",[21],92.4%
same,"viability, T/C",[22],84%
